Laboratory results: PubChem BioAssay (NCI)
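How tested: cells in 96-well plates exposed to compound for 48 hours at five concentrations. TGI marks complete inhibition of growth.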 Where a SMILES comes first, the peptide text is derived from it. [ ]: non-standard residue; d: D form. The star is where a group is joined. Cbz = O=C(OCc1ccccc1)*; Boc = CC(C)(C)OC(=O)*; Aib = CC(C)(N)C(=O)O; OBn = c1ccc(CO*)cc1; OtBu = CC(C)(C)O*; βAla = NCCC(=O)O

Assays:
Test in all cases: inhibition of tumour cell growth, NCI panel, 48 h
SW-620 colon = test system: SW-620 colon
UACC-62 melanoma = test system: UACC-62 melanoma
T-47D breast = test system: T-47D breast
ACHN renal = test system: ACHN renal
U251 CNS = test system: U251 CNS
HOP-62 NSCLC = test system: HOP-62 NSCLC
MDA-MB-435 = test system: MDA-MB-435
MDA-MB-231 breast = test system: MDA-MB-231 breast
786-0 renal = test system: 786-0 renal
COLO 205 colon = test system: COLO 205 colon

Structure (SMILES) | TGI (SW-620 colon) [µM] | TGI (UACC-62 melanoma) [µM] | TGI (T-47D breast) [µM] | TGI (ACHN renal) [µM] | TGI (U251 CNS) [µM] | TGI (HOP-62 NSCLC) [µM] | TGI (MDA-MB-435) [µM] | TGI (MDA-MB-231 breast) [µM] | TGI (786-0 renal) [µM] | TGI (COLO 205 colon) [µM]
OCCN=C1Nc2ccc(Cl)cc2C(=S)N2CSC[C@@H]12 | > 100 | > 100 | > 100 | > 100 | > 100 | > 100 | > 100 | > 100 | > 100 | > 100
CCN(CC)CCCNc1ccc2nnn3c4ccc(O)cc4c(=O)c1c23 | 18.4 | 30.9 | 39.9 | 17.3 | 7.61 | 22.6 | 22.1 | 20.9 | 19.6 | 19.5
O=C1OS2(OCc3cccc4cccc2c34)c2ccccc21 (stereo not given) | > 100 | > 100 | > 100 | > 100 | > 100 | > 100 | > 100 | > 100 | > 100 | > 100
CC(C)(C)OC(=O)CC(NC(=O)OC(C)(C)C)C(=O)NC(CCCCNC(=O)OCc1ccccc1)C(=O)NC(C)(C)C(=O)NCCC(=O)OCc1ccccc1 (stereo not given) (Boc-D(OtBu)K(Cbz)[Aib][βAla]-OBn; configuration not given here) | > 100 | > 100 | > 100 | > 100 | > 100 | > 100 | > 100 | > 100 | > 100 | > 100
CCCCCCCCCCCCCCCCNc1nc(=O)n(C2CC(O)C(CO)O2)cc1F (stereo not given) | 32.1 | 22.8 | 25.3 | 11.9 | 33.1 | 20 | 24.6 | 43.3 | 21.7 | 48.6
COC(=O)C(C)Sc1nc2cc(Cl)ccc2s1 (stereo not given) | > 100 | > 100 | > 100 | > 100 | > 100 | > 100 | > 100 | > 100 | > 100 | > 100
CC(C)(C)OC(=O)N1C(OP(=O)(Oc2ccccc2)Oc2ccccc2)=COc2cccnc21 | > 100 | > 100 | 94.2 | > 100 | > 100 | > 100 | > 100 | > 100 | > 100 | > 100
O=C(Nc1cccc(-c2cn3ccccc3n2)c1)c1ccncc1 | > 100 | 42.2 | 79.6 | > 100 | > 100 | > 100 | > 100 | 98.7 | > 100 | 88.8
O=C(NNC(=S)Nc1ccccc1)c1csc(NC(=S)NC2CCCCC2)n1 | > 100 | > 100 | > 100 | > 100 | > 100 | > 100 | > 100 | > 100 | > 100 | > 100
Cc1[nH]c(-c2ccccc2)c(-c2ccc(Cl)cc2)c1C(=O)ONC(=O)c1ccccc1 | 31.7 | 23.3 | 18.1 | 3.48 | 3.6 | 5.45 | 11.9 | 12.1 | 4.46 | 22.9
O=c1[nH]nc(Cc2ccc(Cl)cc2)n1O | > 100 | > 100 | > 100 | > 100 | > 100 | > 100 | > 100 | > 100 | > 100 | > 100
CC1(C)C2CC(c3ccncc3)ON2C(C)(C)N1O (stereo not given) | > 100 | > 100 | > 100 | > 100 | > 100 | > 100 | > 100 | > 100 | > 100 | > 100
COc1cc2ccnc3c2c(c1O)N(C)C=C3 | > 100 | 25.6 | > 24.7 | 27.6 | > 100 | 46.4 | > 86.5 | > 71.1 | 21.8 | > 63.1
OC1OC(c2ccco2)C(F)(F)C(F)(F)C1(F)F (stereo not given) | > 100 | > 100 | > 100 | > 100 | > 100 | > 100 | > 100 | > 100 | > 100 | > 100
CCCCSc1n/c(=C\c2ccc(N(C)C)cc2)c2nnnn12 | > 100 | > 100 | > 100 | > 100 | > 100 | > 100 | > 100 | > 100 | > 100 | > 100
CCOC(=O)c1c(N2CCOCC2)[nH]c(=O)c(C(c2ccc(OC)cc2)c2c(O)c(C(=O)OCC)c(N3CCOCC3)[nH]c2=O)c1O | > 100 | > 100 | > 100 | > 100 | > 100 | > 100 | > 100 | > 100 | > 100 | > 100
CSC(=NC1=NC(C(F)(F)F)(C(F)(F)F)N=C(c2ccccc2)O1)SC | > 100 | 64.2 | 24.2 | 14.9 | 75.2 | 59 | 55 | 88.1 | 43.5 | 46.5
